Assay [1] deals with learning disorder-induced mouse. Kind of assay: Y-maze test on learning disorder-induced (LPS) mouse. It is filed as in vivo. The note with it: for Learning ability in Y-maze test: LPS-administered mice, Examples 6 and 7. The protocol: The learning disorder-alleviating activity of the GLP-1 derivative was evaluated by a Y-maze test on a learning disorder-induced mouse, using the FOS 12 solution of GLP-1 derivative.
As the learning disorder-induced mouse, ddY mice (5-7 week old, male, n=5) were administered with lipopolysaccharide (LPS) by 10 μg at three days before the test. Fifteen minutes before the administration of LPS, the mice were administered with GLP-1 derivative by 3 μg with the FOS 12 solution of GLP-1 derivative.
The Y-maze test was performed by using a device having three arms of the same size. The number of times that the mouse entered the different arm for consecutive three times was counted, and the result was divided by a number obtained by deducting 2 from the total number of times of entering the arm. The result was multiplied by 100, and used as a spontaneous alternation behavior (%).
As a control, mice (5-7 week old, male, n=5 or 7), intranasally administered a solvent without GLP-1 derivative by 4 μL 15 minutes before the administration of LPS, were subjected to the same test as the above. Further, mice that were not administered with LPS (vehicle) were subjected to the same test as the above. The error bar represents mean±SE (n=5 or 7), and the statistical processing was performed by Mann-Whitney test (*P<0.05, **P<0.01).
As the learning disorder-induced mouse, ddY mice (5-7 week old, male, n=6) administered with lipopolysaccharide (LPS) by 10 μg three days before the test were used. Fifteen minutes before the administration of LPS, the mice were administered with NmU derivative by 3 μg with the FOS 12 solution of NmU derivative. A Y-maze test was performed in the same manner as Example 6, and a spontaneous alternation behavior (%) was calculated from the measurement results.
As a control, mice (5-7 week old, male, n=6), which were intranasally administered a solvent without NmU derivative by 4 μL 15 minutes before the administration of LPS, were subjected to the same test as the above. Further, mice not administered with LPS (vehicle) were subjected to the same test as the above. The error bar represents mean±SE (n=6), and the statistical processing was performed by Mann-Whitney test (*P<0.01, **P<0.001).

Assay [2] relates to ddY mice. Kind of assay: Forced-swim test on a mouse. It is filed as in vivo. The note with it: Example 3, mouse forced-swim test. Here is the method: The anti-depression activity of the GLP-2 derivative was evaluated by a forced-swim test on a mouse. The test was performed by the following process.
Twenty-four hours before the test, ddY mice (5-7 week old, male, n=12) were subjected to a preliminary swimming for 15 minutes. The mice were administered GLP-2 derivative by 3.6 μg with the DMSO solution, on the day before the test and on the day for the test, respectively. Then, the test was performed in the same manner as Example 1, and the immobility time (s) was measured. As a control, mice (5-7 week old, male, n=12) were administered with a solution without GLP-2 derivative were subjected to a forced-swim test in the same manner. The error bar represents mean±SE (n=12), and the statistical processing was performed by Mann-Whitney test (*P<0.05).

The test system of assay [3] is ddY mice. The assay is described as follows: Tail suspension test on a mouse. The assay is classed as in vivo. To be noted: Example 4, mouse tail suspension test. Here is the method:
The anti-depression activity of the GLP-2 derivative was evaluated by a tail suspension test on a mouse, using the DMSO solution of GLP-2 derivative as prepared in Example 3. The test was performed by the following process.
On the day before the test and on the day for the test, ddY mice (5-7 week old, male, n=9) were administered with the GLP-derivative by 3.6 μg, respectively, with the DMSO solution. Then, the mice were suspended by the tail and the immobility time (s) was measured. As a control, mice (5-7 week old, male, n=9) were intranasally administered with a solvent without GLP-2 derivative and subjected to a tail suspension test in the same manner. The error bar represents mean±SE (n=9), and the statistical processing was performed by Mann-Whitney test (*P<0.05).

The test system of another assay is rats. Kind of assay: Forced-swim test on rats (anti-depression activity). It is filed as in vivo, rat. The note with it: intranasal 18 μg/day. The protocol:
The anti-depression activity of the GLP-2 derivative was evaluated by a forced-swim test on rats using the DMSO solution of GLP-2 derivative. The forced-swim test was performed in accordance with the following procedure.
One hour before the test, rats (8-10 week old, male, n=6) were transferred to the laboratory for habituation. The rats were intranasally administered with the DMSO solution of GLP-2 derivative by 18 μg/day for two days, 30 minutes before the test. The rats were allowed to swim for 15 minutes, one by one in a transparent plastic cylinder with a diameter of 18 cm and a height of 50 cm filled with water of 25±1° C. to a height of 30 cm. During the swimming, the immobility time (s) was measured. The rats after the test were wiped with a Kimtowel and placed back to a cage. The test was performed for consecutive 2 days, day 1 as a preliminary test and day 2 as a main test. As a control, rats (8-10 week old, male, n=6) were intranasally administered with a solvent without GLP-2 derivative by 10 μL and subjected to a forced-swim test in the same manner. The error bar represents mean±SE (n=6), and the statistical processing was performed by Mann-Whitney test (*P<0.05). […]

In another assay the test system is depression model mouse. The assay is described as follows: Forced-swim test on ACTH-induced treatment-resistant depression model mouse. The assay is classed as in vivo. The note with it: Example 5, treatment-resistive depression model. Here is the method: The anti-depression activity of the GLP-2 derivative was evaluated by a forced-swim test on a depression model […] using the DMSO solution of GLP-2 derivative as prepared in Example 3.
As the depression model mouse, ddY mice (5-7 week old, male, n=11) were administered with adrenocorticotropic hormone (ACTH) to induce an enhanced state of hypothalamic-pituitary-adrenal axis (HPA system). The administration of ACTH was performed by 0.45 mg/kg/day for consecutive 14 days.
The forced-swim test was performed in the same manner as Example 3 and the immobility time (s) was measured. The mice were intranasally administered with GLP-2 derivative by 3.6 μg as a DMSO solution of GLP-2 derivative, each day for consecutive 6 days until the day for the test. As a control, mice (5-7 week old, male, n=11) were administered with a solvent without GLP-2 derivative by 4 μL each day for consecutive 6 days and subjected to a forced-swim test in the same manner. The error bar represents mean±SE (n=11), and the statistical processing was performed by Mann-Whitney test (*P<0.01).

Several values for one entry are separate records, joined by “and”; a condition that tells them apart may be missing. Equal entries are not always repeated. Ends that are not written are not given here.

Take “FFFFG-(R)8-(G)2-YKVNEYQGPVAPSGGFFLFRPRN-NH2 (not fully specified (N-terminus)) [NmU derivative, derivative of neuromedin U with PAS (FFFFG), octa-arginine and GG spacer]”: the “Alternation behavior (%)” value in assay [1] (Example 7: LPS 10 μg three days before test, NmU derivative 3 μg 15 minutes before LPS, individual animals n=6) is 58.6% and 72.4% and 66.7% and 60.0% and 74.1% and 69.4%; in assay [1] (Example 7: Vehicle (mice not administered LPS), NmU derivative 3 μg, individual animals n=6), 65.9% and 70.5% and 69.0% and 63.9% and 67.8% and 78.8%.
On to “HAEGTFTSDVSSYLEGQAAKEFIAWLVKGR-NH2 [GLP-1, glucagon-like peptide-1; label printed in b156 where the GLP-1 derivative is probably meant, reference compound]”, for which, in assay [1], the “Learning ability in Y-maze test” value is listed as “learning ability is significantly ameliorated”.
As to “HADGSFSDEMNTILDNLAARDFINWLIQTKITD [GLP-2]”, the “Effect of suppressing depression” value in the assay with ddY mice [2], with ddY mice [3] and in the assay on depression model mouse was “an effect of suppressing depression is obtained” each time. In the assay with rats (Comparative Example 1: GLP-2 alone, individual animals n=6), the “Immobility time” value is 46 s and 15 s and 45 s and 41 s and 30 s and 33 s. Also, in the assay with rats (Mann-Whitney test), the “Immobility time / anti-depression activity versus control group” value is listed as “no significant difference in the anti-depression activity”.
Consider “YKVNEYQGPVAPSGGFFLFRPRN-NH2 [NmU, neuromedin U; label printed in b156 where the NmU derivative is probably meant, reference compound]”, for which the “Learning ability in Y-maze test” value in assay [1] is on record as “learning ability is significantly ameliorated”.
As to “FFLIPKG-(R)8-(G)2-HAEGTFTSDVSSYLEGQAAKEFIAWLVKGR-NH2 [GLP-1 derivative]”, the “Alternation behavior (%)” value is 64.3% and 66.7% (2×) and 67.9% and 67.4% in assay [1] (Example 6: LPS 10 μg three days before test, GLP-1 derivative 3 μg 15 minutes before LPS, individual animals n=5); 56.4% and 72.2% and 70.3% and 78.6% and 67.6% in assay [1] (Example 6: Vehicle (mice not administered LPS), GLP-1 derivative 3 μg, individual animals n=5).

These data come from patent publication US20210163567A1, “Method of Delivering a Centrally-Acting Peptide Derivative, and Method of Treating a Neuropsychiatric Disorder” (TOKYO UNIVERSITY OF SCIENCE FOUNDATION, priority 2014, published 2021).
